# Test results taken from patent US20050229260A1, “Compound screens relating to insulin deficiency or insulin resistance” (DevGen NV, priority 2000, published 2005).
# Key:
# PTP = PTP inhibitor; cited from earlier work
# protein phosphatase 2A = protein phosphatase 2A inhibitor; cited from earlier work
# [1] = test system: C. elegans strain DR1564: daf-2(m41)
# Description: All screening was done at 20 μM compound concentration in quadruplicates, except 2000 compounds of Diverset in triplicates. Confirmation was done at 4 concentrations. Questionable dose responses were repeated, if necessary at lower concentrations and/or 2 fold dilution steps. All worms that bypassed dauer stage, L4s and adults, were counted under a Leica MZ12 dissection scope and together referred to as number of adults per well. […] Data were transferred to Excel files and average and variance of the 8 controls of each plate calculated and plotted.
# The number of wells was plotted against the number of adults per well and a negative binomial distribution fitted by maximum likelihood. […]
# Then the number of adults per well where the cumulative negative binomial distribution was closest to 99% was determined and referred to as 1% cut-off. […]
# The plates were then screened through quickly to find wells with a high number adults, which were counted and if found to reach the cut-off value the position on the lid was circled and the exact value written in the circle. […] Finally the transparent lids of the 4 replicate plates were stacked on top of each other and by looking through them it was determined whether 2 or more lids were circled in any position. […]
structure (smiles),measurement,setting,value
CN(N=O)c1cc(O)ccc1O [Dephostatin],IC50,PTP,7.7 µM
CC1(C(=O)O)C2CCC(O2)C1(C)C(=O)O (stereo not drawn) [Cantharidic acid],IC50,protein phosphatase 2A,0.053 µM
COC[C@H]1OC(=O)c2coc3c2[C@@]1(C)C1=C(C3=O)[C@@H]2CCC(=O)[C@@]2(C)C[C@H]1OC(C)=O [Wortmannin],active in the assay,[1],active
